Measurements reported in patent publication US11161842B2, “Bifunctional molecules for degradation of EGFR and methods of use” (Dana-Farber Cancer Institute, Inc., priority 2016, dated 2021).

How the values were obtained:
[1] = molecular target: T1, T790M/L858R/C797S transformed Ba/F3 cells (Homo sapiens, UniProt P00533, T790M/C797S/L858R, cells depend on it); assay: Ba/F3 cell proliferation (MTS) assay, T790M/L858R/C797S; type: cell-based, murine; conditions: antiproliferative activity
T1 construct: The constructs were shuttled into the retroviral vector JP 1540 using the BD Creator™ System (BD Biosciences)
T1 sequence (P00533 whole entry T790M/C797S/L858R): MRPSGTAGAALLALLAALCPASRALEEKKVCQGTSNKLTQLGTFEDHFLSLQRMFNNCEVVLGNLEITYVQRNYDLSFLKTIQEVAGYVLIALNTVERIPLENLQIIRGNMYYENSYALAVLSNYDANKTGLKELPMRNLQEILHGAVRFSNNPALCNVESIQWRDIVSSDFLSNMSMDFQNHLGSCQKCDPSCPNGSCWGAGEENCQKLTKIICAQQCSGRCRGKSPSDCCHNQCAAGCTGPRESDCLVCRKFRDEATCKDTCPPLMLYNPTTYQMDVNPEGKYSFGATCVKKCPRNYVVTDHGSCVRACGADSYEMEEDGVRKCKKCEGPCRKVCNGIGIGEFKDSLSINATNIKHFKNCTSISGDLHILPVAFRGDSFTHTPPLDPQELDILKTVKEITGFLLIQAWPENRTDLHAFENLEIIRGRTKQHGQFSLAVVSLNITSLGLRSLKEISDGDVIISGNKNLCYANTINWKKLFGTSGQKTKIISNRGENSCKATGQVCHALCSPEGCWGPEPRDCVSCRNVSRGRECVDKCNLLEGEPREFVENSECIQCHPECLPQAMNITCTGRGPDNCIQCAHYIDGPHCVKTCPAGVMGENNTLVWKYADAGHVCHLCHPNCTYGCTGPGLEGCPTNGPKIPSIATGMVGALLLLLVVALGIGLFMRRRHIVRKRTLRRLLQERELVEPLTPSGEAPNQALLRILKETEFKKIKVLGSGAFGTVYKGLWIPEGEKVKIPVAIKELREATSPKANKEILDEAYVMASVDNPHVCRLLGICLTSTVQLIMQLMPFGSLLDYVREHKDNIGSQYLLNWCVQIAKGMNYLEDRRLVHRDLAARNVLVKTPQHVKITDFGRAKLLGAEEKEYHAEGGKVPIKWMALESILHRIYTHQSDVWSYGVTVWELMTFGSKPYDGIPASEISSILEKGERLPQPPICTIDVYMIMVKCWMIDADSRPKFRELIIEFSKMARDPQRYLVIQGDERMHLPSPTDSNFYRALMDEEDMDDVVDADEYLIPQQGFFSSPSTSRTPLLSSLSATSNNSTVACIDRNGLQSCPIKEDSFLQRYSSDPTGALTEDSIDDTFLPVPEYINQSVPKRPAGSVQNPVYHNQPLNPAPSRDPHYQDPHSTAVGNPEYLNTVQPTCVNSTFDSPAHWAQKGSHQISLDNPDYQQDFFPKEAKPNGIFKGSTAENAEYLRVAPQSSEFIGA

[2] = molecular target: T2, T790M/L858R transformed Ba/F3 cells (Homo sapiens, UniProt P00533, T790M/L858R, cells depend on it); assay: Ba/F3 cell proliferation (MTS) assay, T790M/L858R; type: cell-based, murine; conditions: for EC50: antiproliferative activity; for % control: compound at 1 μM, inhibition of growth as percent of control
T2 construct: The constructs were shuttled into the retroviral vector JP 1540 using the BD Creator™ System (BD Biosciences)
T2 sequence (P00533 whole entry T790M/L858R): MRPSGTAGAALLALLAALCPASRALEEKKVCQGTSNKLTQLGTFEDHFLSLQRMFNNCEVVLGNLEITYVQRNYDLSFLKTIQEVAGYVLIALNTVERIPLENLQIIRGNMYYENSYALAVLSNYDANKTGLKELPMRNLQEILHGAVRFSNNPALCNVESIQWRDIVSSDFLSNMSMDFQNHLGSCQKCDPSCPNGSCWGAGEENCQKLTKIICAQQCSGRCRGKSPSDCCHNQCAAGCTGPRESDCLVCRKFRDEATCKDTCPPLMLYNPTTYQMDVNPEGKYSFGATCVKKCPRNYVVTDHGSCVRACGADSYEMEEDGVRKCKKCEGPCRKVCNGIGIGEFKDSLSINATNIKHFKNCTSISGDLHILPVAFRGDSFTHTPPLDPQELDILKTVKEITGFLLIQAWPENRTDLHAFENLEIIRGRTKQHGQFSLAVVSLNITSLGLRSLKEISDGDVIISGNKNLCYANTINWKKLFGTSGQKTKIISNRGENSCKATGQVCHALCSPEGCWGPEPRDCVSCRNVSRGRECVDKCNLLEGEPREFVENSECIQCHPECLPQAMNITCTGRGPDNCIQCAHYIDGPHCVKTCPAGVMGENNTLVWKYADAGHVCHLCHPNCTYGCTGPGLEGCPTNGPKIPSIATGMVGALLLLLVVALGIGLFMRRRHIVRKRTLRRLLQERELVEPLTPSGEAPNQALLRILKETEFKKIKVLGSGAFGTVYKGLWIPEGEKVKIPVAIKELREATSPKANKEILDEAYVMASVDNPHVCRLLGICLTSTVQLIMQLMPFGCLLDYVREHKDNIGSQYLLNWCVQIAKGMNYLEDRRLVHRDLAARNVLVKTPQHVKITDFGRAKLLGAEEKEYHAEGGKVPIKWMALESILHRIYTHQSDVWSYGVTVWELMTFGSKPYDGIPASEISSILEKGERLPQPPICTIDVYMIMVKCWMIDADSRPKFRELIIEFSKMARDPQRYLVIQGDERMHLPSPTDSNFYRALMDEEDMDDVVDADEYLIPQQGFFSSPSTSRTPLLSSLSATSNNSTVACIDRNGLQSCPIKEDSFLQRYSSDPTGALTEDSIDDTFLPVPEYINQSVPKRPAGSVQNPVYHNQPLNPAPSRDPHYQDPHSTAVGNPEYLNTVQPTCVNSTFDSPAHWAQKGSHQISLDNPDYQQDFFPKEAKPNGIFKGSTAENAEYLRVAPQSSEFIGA
Source text: The EGFR mutant L858R, Del E746_A750, L858R/T790M, DelE746_A750/T790M, L858R/T790M/C797S and Del/T790M/C797S Ba/F3 cells have been previously described (Zhou, W., Ercan, D., Chen, L., Yun, C. H., Li, D., Capelletti, M., Cortot, A. B., Chirieac, L., Iacob, R. E., Padera, R., et al. “Novel mutant-selective EGFR kinase inhibitors against EGFR T790M,” Nature 462, (2009), 1070-1074). All cell lines were maintained in RPMI 1640 (Cellgro; Mediatech Inc., Herndon, Calif.) supplemented with 10% FBS 100 units/mL penicillin, 100 units/mL streptomycin, and 2 mM glutamine. L858R cells were maintained in ACL-4 media (Invitrogen, Carlsbad, Calif.) supplemented with 5% FBS, 100 units/mL penicillin, 100 units/mL streptomycin, and 2 mM glutamine. The EGFR I941R mutation was introduced via site directed mutagenesis using the Quick Change Site-Directed Mutagenesis kit (Stratagene; La Jolla, Calif.) according to the manufacturer's instructions. All constructs were confirmed by DNA sequencing. The constructs were shuttled into the retroviral vector JP 1540 using the BD Creator™ System (BD Biosciences). Ba/F3 cells were infected with retrovirus and according to standard protocols, as described previously (Zhou et al, Nature 2009). Stable clones were obtained by selection in puromycin (2 μg/ml).
Growth and inhibition of growth was assessed by MTS assay and was performed according to previously established methods (Zhou et al., Nature 2009). The MTS assay is a colorimetric method for determining the number of viable cells that is based on the bioreduction of MTS by cells to a formazan product that is soluble in cell culture medium and can be detected spectrophotometrically. Ba/F3 cells of different EGFR genotypes were exposed to treatment for 72 hours and the number of cells used per experiment determined empirically and has been previously established (Zhou et al., Nature 2009). All experimental points were set up in six wells and all experiments were repeated at least three times. […] The curves were fitted using a non-linear regression model with a sigmoidal dose response.
Compounds of Table 1 were tested at a concentration of 1 μM against T790M/L858R transformed Ba/F3 cells. The assay, as described in Example 42, measured inhibition of growth as a percent of the inhibitory activity of the control. In Table 1, A is 0<% control <25, B is 25<% control <50, C is 50<% control <75, and D is 75<% control.
Compounds of Table 2 were tested in a T790M/L858R transformed Ba/F3 cell line as described in Example 42 and the EC50 values were calculated. In Table 2, A is EC50<500 nM, B is 500 nM<EC50<1000 nM, C is 1000 nM<EC50<5000 nM, and D is 5000 nM<EC50.

EC50 [1] | EC50 [2] | % control [2] | SMILES
> 5000 nM | 1000 to 5000 nM | D (D is 75<% control) | O=C1CCC(N2C(=O)c3cccc(NCCOCCOCCOCCN4CCN(c5ccc(-c6ccc7c(c6)C(=O)N(C(C(=O)Nc6nccs6)c6ccccc6O)C7)cn5)CC4)c3C2=O)C(=O)N1 (centres unmarked) [Compound I-14, 2-(6-(6-(4-(2-(2-(2-(2-((2-(2,6-Dioxopiperidin-3-yl)-1,3-dioxoisoindolin-4-yl)amino)ethoxy)ethoxy)ethoxy)ethyl)piperazin-1-yl)pyridin-3-yl)-1-oxoisoindolin-2-yl)-2-(2-hydroxyphenyl)-N-(thiazol-2-yl)acetamide]
> 5000 nM | 1000 to 5000 nM | C (C is 50<% control <75) | O=C1CCC(N2C(=O)c3cccc(NC4CN(CCOCCOCCN5CCN(c6ccc(-c7ccc8c(c7)C(=O)N(C(C(=O)Nc7nccs7)c7ccccc7)C8)cc6)CC5)C4)c3C2=O)C(=O)N1 (centres unmarked) [Compound I-15, 2-(6-(4-(4-(2-(2-(2-(3-((2-(2,6-Dioxopiperidin-3-yl)-1,3-dioxoisoindolin-4-yl)amino)azetidin-1-yl)ethoxy)ethoxy)ethyl)piperazin-1-yl)phenyl)-1-oxoisoindolin-2-yl)-2-phenyl-N-(thiazol-2-yl)acetamide]
> 5000 nM | 1000 to 5000 nM | C (C is 50<% control <75) | O=C1CCC(N2C(=O)c3cccc(NC4CN(CCOCCOCCOCCN5CCN(c6ccc(-c7ccc8c(c7)C(=O)N(C(C(=O)Nc7nccs7)c7ccccc7)C8)cc6)CC5)C4)c3C2=O)C(=O)N1 (centres unmarked) [Compound I-16, 2-(6-(4-(4-(2-(2-(2-(2-(3-((2-(2,6-Dioxopiperidin-3-yl)-1,3-dioxoisoindolin-4-yl)amino)azetidin-1-yl)ethoxy)ethoxy)ethoxy)ethyl)piperazin-1-yl)phenyl)-1-oxoisoindolin-2-yl)-2-phenyl-N-(thiazol-2-yl)acetamide]
< 500 nM | < 500 nM | A (A is 0<% control <25) | O=C1CCC(N2C(=O)c3cccc(NCCOCCOCCOCCN4CCN(c5ccc(-c6ccc7c(c6)C(=O)N(C(C(=O)Nc6nccs6)c6ccccc6)C7)cc5)CC4)c3C2=O)C(=O)N1 (centres unmarked) [Compound I-18, 2-(6-(4-(4-(2-(2-(2-(2-((2-(2,6-Dioxopiperidin-3-yl)-1,3-dioxoisoindolin-4-yl)amino)ethoxy)ethoxy)ethoxy)ethyl)piperazin-1-yl)phenyl)-1-oxoisoindolin-2-yl)-2-phenyl-N-(thiazol-2-yl)acetamide]
< 500 nM | < 500 nM | A (A is 0<% control <25) | O=C1CCC(N2C(=O)c3cccc(NCCOCCOCCOCCOCCN4CCN(c5ccc(-c6ccc7c(c6)C(=O)N(C(C(=O)Nc6nccs6)c6ccccc6)C7)cc5)CC4)c3C2=O)C(=O)N1 (centres unmarked) [Compound I-20, 2-(6-(4-(4-(14-((2-(2,6-Dioxopiperidin-3-yl)-1,3-dioxoisoindolin-4-yl)amino)-3,6,9,12-tetraoxatetradecyl)piperazin-1-yl)phenyl)-1-oxoisoindolin-2-yl)-2-phenyl-N-(thiazol-2-yl)acetamide]
500 to 1000 nM | < 500 nM | A (A is 0<% control <25) | O=C1CCC(N2C(=O)c3cccc(NCCOCCOCCOCCN4CCN(c5ccc(-c6ccc7c(c6)C(=O)N(C(C(=O)Nc6nccs6)c6ccccc6)C7)cn5)CC4)c3C2=O)C(=O)N1 (centres unmarked) [Compound I-22, 2-(6-(6-(4-(2-(2-(2-(2-((2-(2,6-Dioxopiperidin-3-yl)-1,3-dioxoisoindolin-4-yl)amino)ethoxy)ethoxy)ethoxy)ethyl)piperazin-1-yl)pyridin-3-yl)-1-oxoisoindolin-2-yl)-2-phenyl-N-(thiazol-2-yl)acetamide]
> 5000 nM | > 5000 nM | D (D is 75<% control) | Cc1ncsc1-c1ccc([C@H](C)NC(=O)[C@@H]2C[C@@H](O)CN2C(=O)[C@@H](NC(=O)CCOCCOCCOCCN2CCN(c3ccc(-c4ccc5c(c4)C(=O)N(C(C(=O)Nc4nccs4)c4ccccc4)C5)cn3)CC2)C(C)(C)C)cc1 (stereo partly drawn) [Compound I-23, (2S,4R)-1-((14S)-14-(tert-Butyl)-12-oxo-1-(4-(5-(3-oxo-2-(2-oxo-1-phenyl-2-(thiazol-2-ylamino)ethyl)isoindolin-5-yl)pyridin-2-yl)piperazin-1-yl)-3,6,9-trioxa-13-azapentadecan-15-oyl)-4-hydroxy-N—((S)-1-(4-(4-methylthiazol-5-yl)phenyl)ethyl)pyrrolidine-2-carboxamide]
> 5000 nM | > 5000 nM |  | Cc1ncsc1-c1ccc([C@H](C)NC(=O)[C@@H]2C[C@@H](O)CN2C(=O)[C@@H](NC(=O)CCOCCOCCN2CCN(c3ccc(-c4ccc5c(c4)C(=O)N(C(C(=O)Nc4nccs4)c4ccccc4)C5)cn3)CC2)C(C)(C)C)cc1 (stereo partly drawn) [Compound I-24, (2S,4R)-1-((2S)-3,3-Dimethyl-2-(3-(2-(2-(4-(5-(3-oxo-2-(2-oxo-1-phenyl-2-(thiazol-2-ylamino)ethyl)isoindolin-5-yl)pyridin-2-yl)piperazin-1-yl)ethoxy)ethoxy)propanamido)butanoyl)-4-hydroxy-N—((S)-1-(4-(4-methylthiazol-5-yl)phenyl)ethyl)pyrrolidine-2-carboxamide]
> 5000 nM | 500 to 1000 nM | A (A is 0<% control <25) | O=C1CCC(N2C(=O)c3cccc(NCCOCCOCCC(=O)N4CCN(c5ccc(-c6ccc7c(c6)C(=O)N(C(C(=O)Nc6nccs6)c6cc(F)ccc6O)C7)cc5)CC4)c3C2=O)C(=O)N1 (centres unmarked) [Compound I-28, 2-(6-(4-(4-(3-(2-(2-((2-(2,6-dioxopiperidin-3-yl)-1,3-dioxoisoindolin-4-yl)amino)ethoxy)ethoxy)propanoyl)piperazin-1-yl)phenyl)-1-oxoisoindolin-2-yl)-2-(5-fluoro-2-hydroxyphenyl)-N-(thiazol-2-yl)acetamide]
> 5000 nM | 500 to 1000 nM | A (A is 0<% control <25) | O=C1CCC(N2C(=O)c3cccc(NCCOCCC(=O)N4CCN(c5ccc(-c6ccc7c(c6)C(=O)N(C(C(=O)Nc6nccs6)c6cc(F)ccc6O)C7)cc5)CC4)c3C2=O)C(=O)N1 (centres unmarked) [Compound I-29, 2-(6-(4-(4-(3-(2-((2-(2,6-dioxopiperidin-3-yl)-1,3-dioxoisoindolin-4-yl)amino)ethoxy)propanoyl)piperazin-1-yl)phenyl)-1-oxoisoindolin-2-yl)-2-(5-fluoro-2-hydroxyphenyl)-N-(thiazol-2-yl)acetamide]
1000 to 5000 nM | < 500 nM | A (A is 0<% control <25) | O=C1CCC(N2C(=O)c3cccc(NCCOCCOCCN4CCN(c5ccc(-c6ccc7c(c6)C(=O)N(C(C(=O)Nc6nccs6)c6cc(F)ccc6O)C7)cc5)CC4)c3C2=O)C(=O)N1 (centres unmarked) [Compound I-33]
